Laboratory results as given in patent US8937068B2, “Pyridopyrazine derivatives and their use” (Zentaris GmbH, priority 2005, dated 2015).

What was measured:
PI3Kalpha = PI3Kalpha (Homo sapiens (Human), UniProt P42336); experiment: Cell-free kinase assay (ALPHA technology), PI3Kalpha; format: biochemical; settings: 100 μM ATP
Experimental: (§1) The inhibitory effect of the compounds according to the invention was tested on various serine/threonine, tyrosine and lipid kinases in enzymatic assays. Recombinant human kinases such as, for example, Erk2, PI3Kalpha, -beta, -gamma, -delta, p38alpha, p38gamma, Jnk1, Jnk2 and others were used in this case, partly as full-length kinases, partly as shortened fragments, but at least consisting of the functional kinase domains. The commercial kinase proteins (Proqinase, Upstate) were used as recombinant fusion proteins with GST (glutathion-S-transferase) or His-Tag. Depending on the type of substrate, the various kinase reactions were quantified by means of suitable ALPHA™ beads (Perkin-Elmer).
(§2) The substance testing is described in detail hereinafter for the Erk assay.
(§3) a) MAPK-ALPHAs (e.g. Erk2): the test substance, 0.625 ng Erk2 (#14-173, Upstate), 10 μM ATP and 15 nM biotinylated MBP (myelin basic protein) substrate were incubated on a 384-well Optiplate (Perkin-Elmer) in a volume of 15 μl for 1 h in 25 mM Tris, 10 mM MgCl2, 0.1% Tween-20, 100 μM NaVO4, 2 mM DTT at pH 7.5. The kinase reaction was then stopped by adding 10 μl of the ALPHA bead mixes (10 μg/ml, #6760617/Perkin-Elmer) pre-incubated with anti-phospho MBP antibody (320 pM, #05-429/Upstate) in 25 mM Tris, 200 mM NaCl, 110 nM EDTA and 0.3% BSA and left to stand overnight. b) PI3K-ALPHAs (e.g. PI3Kalpha): the test substance, 1 ng PI3Kalpha (#14-602, Upstate), 100 μM ATP and 20 μM PIP2 substrate (#P4508, Echelon) were incubated on a 384-well Optiplate (Perkin-Elmer) for 1 h in 50 mM Hepes, 50 mM NaCl, 5 mM MgCl2, 0.05% Chaps, 5 mM DTT at pH 7.4. The kinase reaction was then stopped by adding ALPHA bead mixes (10 μg/ml, #6760603/Perkin-Elmer) pre-incubated with 1 nM GST:Grp1 fusion protein (Upstate) and 15 nM biotinylated PIP3 (#C-39B6/Echelon) in 50 mM Hepes, 50 mM NaCl, 50 mM EDTA and 0.1% BSA and left to stand overnight.
(§4) The fluorescence was detected the following morning in a Fusion™^aα-system (Perkin-Elmer).
(§5) The %-inhibition values per substance concentration were calculated by means of the following formula from the raw data determined in the Fusion™ ? :
(§6) Eight determinations were made for each control and two for the substance samples. The 0% control either contains no ATP or no substrate, the 100% control (fully active kinase) contains no test substance. The IC50 values were determined using GraphPadPrism.

p38alpha = p38alpha (Homo sapiens (Human), UniProt Q16539); experiment: Cell-free kinase assay (ALPHA technology), p38alpha; format: biochemical; settings: 10 μM ATP
Experimental: as §1, §2, §3, §4, §5, §6

Jnk1 + Jnk2 = experiment: Cell-free kinase assay (ALPHA technology), Jnk1 + Jnk2; format: biochemical, human; settings: 10 μM ATP
Experimental: as §1, §2, §3, §4, §5, §6

Erk2 = Erk2 (Homo sapiens, UniProt P28482); experiment: Cell-free kinase assay (ALPHA technology), Erk2; format: biochemical; settings: 10 μM ATP
Experimental: The inhibitory effect of the compounds according to the invention was tested on various serine/threonine, tyrosine and lipid kinases in enzymatic assays. […] The commercial kinase proteins (Proqinase, Upstate) were used as recombinant fusion proteins with GST (glutathion-S-transferase) or His-Tag. Depending on the type of substrate, the various kinase reactions were quantified by means of suitable ALPHA™ beads (Perkin-Elmer). The substance testing is described in detail hereinafter for the Erk assay. […] a) MAPK-ALPHAs (e.g. […] The kinase reaction was then stopped by adding ALPHA bead mixes (10 μg/ml, #6760603/Perkin-Elmer) pre-incubated with 1 nM GST:Grp1 fusion protein (Upstate) and 15 nM biotinylated PIP3 (#C-39B6/Echelon) in 50 mM Hepes, 50 mM NaCl, 50 mM EDTA and 0.1% BSA and left to stand overnight. The fluorescence was detected the following morning in a Fusion™^aα-system (Perkin-Elmer). […] Eight determinations were made for each control and two for the substance samples. […] The IC50 values were determined using GraphPadPrism.

MDA-MB468 = experiment: XTT assay, anti-proliferative effect, MDA-MB468; format: cell-based; settings: 45 h incubation
Experimental: (§7) The principle of this test is based on the intracellular reduction of the tetrazolium dye XTT (sodium 3′-[1-(phenylaminocarbonyl)-3,4-tetrazolium]-bis(4-methoxy-6-nitro)benzene sulfonic acid, Sigma) to a formazan dye by mitochondrial dehydrogenases. The dye is only formed by metabolically active cells and its photometrically measurable intensity is a quantitative indicator for the presence of living cells. The reduction of dye formation by incubation of the cells with substances serves as a parameter for the anti-proliferative effect.
(§8) The tumour cell lines (ATCC) were injected into 96-well microtitre plates in a defined cell number (5000 cells/well for BxPC3 and Hct116; 10000 cells/well for MDA MB468) and then incubated overnight in an incubator at 37° C., 5% CO2 and 95% air humidity. The test substances were prepared as stock solutions (10 mM) in DMSO. […] The cell plates were then incubated for 45 h in an incubator at 37° C., 5% CO2 and 95% air humidity.
(§9) For the detection reaction the substrate XTT was mixed with PMS (N-Methyl dibenzopyrazine methylsulfate, Sigma) and added to the cells so that a final concentration of 325 μg XTT/ml and 2.5 μg PMS/ml was obtained. It was then incubated for 3 h at 37° C., 95% air humidity. The formazan salt formed by the cellular dehydrogenases could then be quantified by adsorption at 490 nm.
(§10) The % inhibition value was evaluated by means of the following formula from the values for the optical densities measured in each case at 490 nm:
(§11) Eight determinations were made for each control and two for the substance samples. The 0% control contains no cells, the 100% control (proliferation control) contains no test substance. The EC50 values were determined using GraphPadPrism.

BxPC3 = experiment: XTT assay, anti-proliferative effect, BxPC3; format: cell-based; settings: Homo sapiens, BXPC-3; 45 h incubation
Experimental: as §7, §8, §9, §10, §11

Hct116 = experiment: XTT assay, anti-proliferative effect, Hct116; format: cell-based; settings: 45 h incubation
Experimental: as §7, §8, §9, §10, §11

Erk → pRsk = experiment: Cellular substrate phosphorylation (Western Blotting), Erk substrate pRsk; format: cell-based
Experimental: (§12) This method can be used to predict whether the kinase modulator under study also achieves the desired effect in a cellular context, i.e. in this case, a substrate protein downstream of the target kinase is investigated for its phosphorylation status. For this purpose, the cells incubated with substance are lysed and the total protein separated on a reducing polyacrylamide gel. The proteins are then transferred to a PVDF membrane by means of Western Blotting and the substrate bands sought are made visible with specific antibodies and a suitable detection method. The substrate proteins downstream of the target kinases are detected simultaneously with a respectively special anti-phospho-antibody and at the same time a total antibody which recognizes the substrate total protein. This simultaneous measurement can be made using the duplex technology of the ODYSSEY imagers (LiCOR). The intensity of the total substrate bands is used for normalising or quantifying the phosphorylation inhibition or activation.
(§13) Suitable tumour cell lines (e.g. BxPC3, Hct116 or MDA MB468) were injected into six-well microtitre plates in a defined cell number (e.g. 350 000 cells/well for BxPC3 and Hct116) in the respective standard complete medium and then incubated overnight at 37° C., 5% CO2 and 95% air humidity. The cells were then incubated for a further 24 h under serum-reduced conditions i.e. in the respective medium but with only 0.25% serum. The test substances were prepared as stock solutions (10 mM) in DMSO and incubated with the cells in final concentrations of 5, 15.8 and 50 μM for 5 h. This was followed by cell lysis in 25 mM Tris, 150 mM NaCl, 10 mM Na-pyrophosphate, 2 mM EGTA, 25 mM β-glycerophosphate, 25 mM NaF, 10% glycerine, 0.75% NP-40, 100 μM NaVO4 buffer. Following protein quantification by means of BCA (bicinchonic acid protein assay kit, Sigma) Assay, protein quantities of about 20 μg per track were separated on a Lämmli polyacrylamide gel and then transferred to a PVDF membrane (Millipore) by means of Semi-Dry Western-Blotting at 0.8 mA/cm^2 for 1 h. This was followed by pre-hybridisation of the membrane for 1 hour in I-block reagent (Applied Biosystems) and incubation overnight with the specific antibodies. To determine the Erk and PI3K inhibition, the respectively downstream substrates Rsk1 were detected with the total antibody (Rsk #sc-231g C-21, Santa Cruz) and the phospho-antibody (Phospho-p90RSK (S380) #9341, NEB Cell Signalling) and Akt was detected with the total antibody (Akt1 #sc-1618 C-20, Santa Cruz) and the phospho-antibody (Phospho-Akt (Ser 473) #9271, NEB Cell Signaling). After washing the membrane, secondary antibody incubation was carried out with anti-rabbit IR Dye 800 (#611-732-127, Rockland) for the phospho-antibody and anti-goat Alexa Fluor 680 (#A-21081, Molecular Probes) for the total protein-antibody. After incubating for 30 min at room temperature in the dark, the hybridisation of the detection antibody on the membrane was detected by scanning in the ODYSSEY imager (LiCOR).
(§14) The reduction of the fluorescence intensity of the phospho-substrate bands (pRsk and pAkt) is given in the table below as % inhibition and relates to the following formula:
(§15) The band intensity (fluorescence intensity) of the respective non-inhibited (without substance) phospho-substrates was used as 100% control.

PI3K → pAkt = experiment: Cellular substrate phosphorylation (Western Blotting), PI3K substrate pAkt; format: cell-based
Experimental: as §12, §13, §14, §15

Chain of PI3Kalpha (P42336 whole entry, the tested form may be a part): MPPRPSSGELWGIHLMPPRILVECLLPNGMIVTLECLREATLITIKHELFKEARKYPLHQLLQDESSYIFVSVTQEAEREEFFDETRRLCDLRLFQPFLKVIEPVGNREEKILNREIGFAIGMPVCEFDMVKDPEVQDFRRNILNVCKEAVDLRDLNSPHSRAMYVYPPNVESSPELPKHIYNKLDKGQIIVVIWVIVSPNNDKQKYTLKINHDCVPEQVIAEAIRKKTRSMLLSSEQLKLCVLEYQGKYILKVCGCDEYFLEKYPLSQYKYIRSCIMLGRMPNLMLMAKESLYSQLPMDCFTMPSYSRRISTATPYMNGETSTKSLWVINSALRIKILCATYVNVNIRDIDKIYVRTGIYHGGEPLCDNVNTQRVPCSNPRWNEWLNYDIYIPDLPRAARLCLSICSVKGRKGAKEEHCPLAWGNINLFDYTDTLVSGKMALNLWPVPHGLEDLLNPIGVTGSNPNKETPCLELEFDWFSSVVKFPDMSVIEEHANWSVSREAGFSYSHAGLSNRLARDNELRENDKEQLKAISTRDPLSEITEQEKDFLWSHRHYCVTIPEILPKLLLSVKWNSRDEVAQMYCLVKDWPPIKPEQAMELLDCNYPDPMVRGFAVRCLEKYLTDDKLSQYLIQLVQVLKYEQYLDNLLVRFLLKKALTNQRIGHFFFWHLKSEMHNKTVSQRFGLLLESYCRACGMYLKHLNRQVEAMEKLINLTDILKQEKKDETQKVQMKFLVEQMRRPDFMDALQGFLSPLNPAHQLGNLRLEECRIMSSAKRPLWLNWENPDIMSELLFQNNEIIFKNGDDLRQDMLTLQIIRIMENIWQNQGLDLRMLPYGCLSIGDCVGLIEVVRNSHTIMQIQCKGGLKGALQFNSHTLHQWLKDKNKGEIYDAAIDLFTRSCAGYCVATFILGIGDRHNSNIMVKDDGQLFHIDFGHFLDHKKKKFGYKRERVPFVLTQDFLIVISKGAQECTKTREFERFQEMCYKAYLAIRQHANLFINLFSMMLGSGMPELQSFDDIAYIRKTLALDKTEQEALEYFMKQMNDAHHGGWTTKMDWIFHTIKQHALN
Chain of PI3Kalpha (P27986 whole entry partner, the tested form may be a part): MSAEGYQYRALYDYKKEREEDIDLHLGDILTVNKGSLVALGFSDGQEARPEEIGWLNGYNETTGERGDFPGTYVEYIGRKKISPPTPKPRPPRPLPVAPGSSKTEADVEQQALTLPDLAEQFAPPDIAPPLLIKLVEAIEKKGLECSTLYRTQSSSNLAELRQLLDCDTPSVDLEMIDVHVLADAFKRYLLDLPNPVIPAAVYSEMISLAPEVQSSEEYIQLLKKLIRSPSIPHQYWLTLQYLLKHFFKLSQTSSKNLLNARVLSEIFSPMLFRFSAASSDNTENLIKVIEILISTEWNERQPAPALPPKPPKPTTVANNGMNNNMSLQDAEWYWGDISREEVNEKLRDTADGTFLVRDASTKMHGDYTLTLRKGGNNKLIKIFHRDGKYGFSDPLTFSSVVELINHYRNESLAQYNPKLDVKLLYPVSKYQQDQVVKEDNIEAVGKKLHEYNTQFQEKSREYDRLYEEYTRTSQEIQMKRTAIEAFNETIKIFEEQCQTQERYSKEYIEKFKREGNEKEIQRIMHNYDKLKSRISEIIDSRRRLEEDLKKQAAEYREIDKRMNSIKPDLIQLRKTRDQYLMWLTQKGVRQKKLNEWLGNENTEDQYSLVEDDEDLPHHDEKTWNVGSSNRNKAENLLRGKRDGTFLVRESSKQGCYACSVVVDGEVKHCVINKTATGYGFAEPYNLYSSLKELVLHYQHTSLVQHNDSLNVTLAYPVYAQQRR
Chain of Erk2 (P28482 2-360 limits assumed): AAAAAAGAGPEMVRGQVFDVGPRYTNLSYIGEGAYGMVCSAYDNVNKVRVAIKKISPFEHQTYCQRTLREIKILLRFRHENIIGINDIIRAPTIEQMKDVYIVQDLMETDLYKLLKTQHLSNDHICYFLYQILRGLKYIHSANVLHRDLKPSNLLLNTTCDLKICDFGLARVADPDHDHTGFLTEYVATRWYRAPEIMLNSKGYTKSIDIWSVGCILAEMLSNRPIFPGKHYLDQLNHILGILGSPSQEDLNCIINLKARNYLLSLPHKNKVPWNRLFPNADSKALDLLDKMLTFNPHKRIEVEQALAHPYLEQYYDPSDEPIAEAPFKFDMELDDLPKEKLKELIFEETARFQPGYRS
Chain of p38alpha (Q16539 whole entry): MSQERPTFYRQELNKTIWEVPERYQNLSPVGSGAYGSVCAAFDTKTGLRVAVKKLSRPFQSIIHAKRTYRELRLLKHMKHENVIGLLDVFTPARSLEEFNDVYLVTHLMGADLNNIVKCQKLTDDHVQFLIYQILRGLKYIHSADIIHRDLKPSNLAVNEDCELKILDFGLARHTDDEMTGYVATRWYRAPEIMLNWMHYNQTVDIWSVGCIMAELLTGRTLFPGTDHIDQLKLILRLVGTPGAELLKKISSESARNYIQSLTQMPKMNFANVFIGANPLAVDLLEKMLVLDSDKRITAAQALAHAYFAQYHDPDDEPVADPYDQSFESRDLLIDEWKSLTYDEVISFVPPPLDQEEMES

SMILES | IC50 (PI3Kalpha) [nM] | IC50 (p38alpha) [µM] | IC50 (Jnk1 + Jnk2) [µM] | IC50 (Erk2) [nM] | EC50 (MDA-MB468; Homo sapiens, MDA-MB-468) [µM] | EC50 (Hct116; Homo sapiens, HCT-116) [µM] | also measured
C=CCNC(=S)Nc1ccc2ncc(-c3ccccc3)nc2n1 [Compound 1, 1-Allyl-3-(3-phenyl-pyrido[2,3-b]pyrazin-6-yl)-thiourea] | 900 | > 31.6 | > 31.6 |  |  |  | melting point: 239 to 240 °C (dec.)
C=CCNC(=O)Nc1ccc2ncc(-c3ccc(O)cc3)nc2n1 [Compound 25, 1-allyl-3-[3-(4-hydroxy-phenyl)-pyrido[2,3-b]pyrazin-6-yl]-urea] | 1500 | > 100 | > 31.6 | 76 |  |  | melting point: 240 °C (dec.)
CCNC(=O)Nc1ccc2ncc(-c3ccc(OC)c(OC)c3)nc2n1 [Compound 153, 1-[3-(3,4-Dimethoxy-phenyl)-pyrido[2,3-b]pyrazin-6-yl]-3-ethyl-urea] | 612 | > 100 | 6.7 | 939 | 24 | 6 | EC50 (BxPC3): > 25 µM
CCNC(=O)Nc1ccc2ncc(-c3ccc(OP(=O)(O)O)c(OC)c3)nc2n1 [Compound 169, Phosphoric acid-mono-{4-[6-(3-ethyl-ureido)-pyrido-[2,3-b]pyrazin-3-yl]-2-methoxy-phenyl}-ester] | 3700 | > 100 | 9.5 | 2700 | 5.7 | 2.8 | 
CCNC(=O)Nc1ccc2ncc(-c3cc(Cl)c(O)c(OC)c3)nc2n1 [Compound 175] | 458 | > 100 | 2.5 | 191 |  |  | EC50 (MDA-MB468): > 50 µM; EC50 (Hct116): 4.4 µM
COc1cc(-c2cnc3ccc(NC(=O)NCCCCN4CCOCC4)nc3n2)ccc1O [Compound 176, 1-[3-(4-Hydroxy-3-methoxy-phenyl)-pyrido[2,3-b]pyrazin-6-yl]-3-(4-morpholin-4-yl-butyl)-urea] |  |  |  |  | 17 | 11.8 | 
CCNC(=O)Nc1ccc2ncc(Nc3cc(C)cc(C)c3)nc2n1 [Compound 191, 1-[3-(3,5-Dimethyl-phenylamino)-pyrido[2,3-b]pyrazin-6-yl]-3-ethyl-urea] |  |  |  |  | 8.5 | 5.5 | 
CCNC(=O)Nc1ccc2ncc(-c3ccc(O)c(OC)c3)nc2n1 [Compound 193] | 2200 | > 100 | 1.5 | 212 |  |  | EC50 (MDA-MB468): 4.4 µM; EC50 (Hct116): 2.1 µM
COC[C@H]1OC(=O)c2coc3c2[C@@]1(C)C1=C(C3=O)[C@@H]2CCC(=O)[C@@]2(C)C[C@H]1OC(C)=O [Wortmannin, reference compound] |  |  |  |  |  |  | inhibition at 50 µM (Erk → pRsk; 50 μM, 5 h): 0%; Erk inhibition / inhibition of the Erk substrate p-Rsk (in words) (Erk → pRsk; Western Blotting): no Erk or p-RSK inhibition; inhibition at 50 µM (PI3K → pAkt; 50 μM, 5 h): 100%; PI3K inhibition / inhibition of the PI3K substrate p-Akt (in words) (PI3K → pAkt; Western Blotting): complete inhibition of the PI3K substrate pAkt
